Tests used:
[1] = test system: T1, Ab2 fibrils; assay: Determination of the binding capacity (dye depletion from supernatant); design: species or system human; details: 2 nmol dye (20 µM) with 10 μg fibril material, one hour
T1 construct: Two structurally distinct fibrils of the Aβ(1–40) peptide associated with AD
Description: (§1) Control samples (without fibril material) were prepared similarly. Fibrils and fibril-bound ligand were pelleted by centrifugation (17,000 g, 30 min) and the supernatant (90 μL) was transferred to a 96 well half-area plate (Corning 3881).

[2] = test system: T2, Ab1 fibrils; assay: as above; design: species or system human; details: 2 nmol dye (20 µM) with 10 μg fibril material, one hour
T2 construct: Synthetic amyloid β peptide 1–40 was purchased from Caslo Aps (Lyngby, Denmark); purchased Caslo Aps (Lyngby, Denmark); host or cells: synthetic peptide
Description: as §1

[3] = target: T3, αSN fibrils (Homo sapiens, UniProt P37840); assay: as above; details: 2 nmol dye (20 µM) with 10 μg fibril material, one hour
Description: as §1

[4] = target: T4, C-36 fibrils (Homo sapiens, UniProt P01009); assay: as above; details: 2 nmol dye (20 µM) with 10 μg fibril material, one hour
T4 construct: the 36 residue C-terminal fragment of α1-antitrypsin (C-36)
Description: as §1

[5] = target: T5, glucagon fibrils (Homo sapiens, UniProt P01275); assay: as above; details: 2 nmol dye (20 µM) with 10 μg fibril material, one hour
T5 construct: fibrils of the peptide hormone glucagon
Description: as §1

[6] = target: T5, glucagon fibrils; assay: Fibril titration with ThT (fluorescence); details: 7.5 μg fibril material, single-site binding model
Description: (§2) Fibril material (7.5 μg) was set up in 100 μL phosphate buffer in a 96 well half-area NBS plate (NUNC/Terma).

[7] = target: Ab1 fibrils (Aβ(1–40)) (Homo sapiens, UniProt P05067); assay: Fibril titration with ThT (fluorescence); assay type: binding
Description: as §2

[8] = target: T3, αSN fibrils; assay: Fibril titration with ThT (fluorescence); assay type: binding; details: titration experiment
Description: as §2

[9] = target: Ab2 fibrils (Aβ(1–40)) (Homo sapiens, UniProt P05067); assay: Fibril titration with ThT (fluorescence); assay type: binding
Description: as §2

[10] = test system: chymotrypsinogen amorphous aggregates; assay: Fibril titration with ThT (fluorescence); assay type: binding; details: TCA-induced amorphous aggregates
Description: as §2

[11] = target: T4, C-36 fibrils; assay: Fibril titration with ThT (fluorescence); assay type: binding
Description: as §2

[12] = test system: T6, FAS4 AD aggregates; assay: Fibril titration with ThT (fluorescence); assay type: binding, human; details: ThT mixed with FAS4 AD aggregates
T6 construct: a mutated version of the FAS1-4 domain of TGFBIp
Description: as §2

[13] = target: T4, C-36 fibrils; assay: Fibril incubation with plasma, quantitative MS/MS of bound proteins; assay type: binding; details: 50:1 w/w plasma protein:fibril
[14] = target: T3, αSN fibrils; assay: Fibril incubation with CSF, quantitative MS/MS of bound proteins; assay type: binding; details: 4:1 w/w CSF protein:fibril
[15] = test system: T7, FAS4-AD aggregates; assay: as above; assay type: binding, human; design: key to Identification status of CSF protein bound: FAS4-AD: *: Identified, but not quantified; —: Not identified in any of the samples; details: symbol cells
T7 construct: aggregates of a mutated version of the FAS1-4 domain of TGFBIp

[16] = test system: T2, Ab1 fibrils; assay: Fibril incubation with plasma, quantitative MS/MS of bound proteins; assay type: binding, human; details: 50:1 w/w plasma protein:fibril
Summary of the method: (§3)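 Bound proteins quantified by XIC (three most abundant peptides), each normalized to run total intensity and averaged across nine LC-MS/MS experiments. Pellets came from 1 h room-temperature incubation of 20 μg fibrils with 500 μg plasma or 40 μg CSF protein in PBS with 5 mM EDTA.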

[17] = test system: fibril systems (Ab1, Ab2, glucagon, αSN and C-36); assay: Fibril incubation with CSF, quantitative MS/MS, span over the fibril systems; assay type: binding, human
Description: Plasma and CSF solutions were centrifuged (40,000 g, 20 min) to remove any aggregates. The protein concentration was determined using 280 nm absorbance assuming 1 Abs = 1 mg/mL. […] Control samples (without fibril material) were prepared similarly. All samples were incubated at room temperature for one hour under gentle agitation. Fibrils and fibril-bound proteins were pelleted by centrifugation at 17,000 g for 30 minutes. The supernatant (175 μL) was removed and the aggregate was re-suspended in 175 μL PBS and pelleted again before further preparation for gel analysis and spin-filter assisted digest for quantitative MS/MS. […]
(§4) The micro-purified tryptic peptides were dissolved in 0.1% formic acid, injected and trapped on an in-house packed trap column (2 cm × 100 μm I.D) with RP ReproSil-Pur C18-AQ 3 μm resin (Dr. Maisch GmbH). […] Elution from the analytical column was performed with a linear gradient from 5% to 35% phase B (90% acetonitrile with 0.1% formic acid) over 20 min for protein identification and 50 min for quantitative analysis, respectively.
All samples were analysed three times, yielding nine MS/MS experiments for each fibril for both plasma and CSF. […]

[18] = target: T4, C-36 fibrils; assay: Fibril incubation with CSF, quantitative MS/MS of bound proteins; assay type: binding; details: 4:1 w/w CSF protein:fibril
[19] = target: T5, glucagon fibrils; assay: Fibril incubation with plasma, quantitative MS/MS of bound proteins; assay type: binding; details: 50:1 w/w plasma protein:fibril
[20] = test system: T1, Ab2 fibrils; assay: as above; assay type: binding, human; details: 50:1 w/w plasma protein:fibril
[21] = test system: T7, FAS4-AD aggregates; assay: as above; assay type: binding, human; details: 50:1 w/w plasma protein:fibril
Summary of the method: as §3

[22] = target: T5, glucagon fibrils; assay: Fibril incubation with CSF, quantitative MS/MS of bound proteins; assay type: binding; details: 4:1 w/w CSF protein:fibril
[23] = target: T3, αSN fibrils; assay: Fibril incubation with plasma, quantitative MS/MS of bound proteins; assay type: binding; details: 50:1 w/w plasma protein:fibril
Summary of the method: as §3

[24] = test system: T1, Ab2 fibrils; assay: Fibril incubation with CSF, quantitative MS/MS of bound proteins; assay type: binding, human; details: 4:1 w/w CSF protein:fibril
[25] = test system: fibril systems (Ab1, Ab2, glucagon, αSN and C-36); assay: Fibril incubation with plasma, quantitative MS/MS, span over the fibril systems; assay type: binding, human
Description: Plasma and CSF solutions were centrifuged (40,000 g, 20 min) to remove any aggregates. The protein concentration was determined using 280 nm absorbance assuming 1 Abs = 1 mg/mL. […] Control samples (without fibril material) were prepared similarly. All samples were incubated at room temperature for one hour under gentle agitation. Fibrils and fibril-bound proteins were pelleted by centrifugation at 17,000 g for 30 minutes. The supernatant (175 μL) was removed and the aggregate was re-suspended in 175 μL PBS and pelleted again before further preparation for gel analysis and spin-filter assisted digest for quantitative MS/MS.
The fibril-protein pellets were transferred to spin-filters (0.22 μm), washed twice in PBS (100 μL) and once in 1 M NaCl (100 μL). The fibrils and fibril-bound proteins were dissolved by one-hour incubation in 100 μL 6 M guanidinium chloride followed by elution from the spin-filter. […]
as §4
All samples were analysed three times, yielding nine MS/MS experiments for each fibril for both plasma and CSF. For the area-based extracted ion chromatogram (XIC) quantification, the acquisition method was set up as an information-dependent acquisition (IDA) experiment collecting up to 25 MS/MS spectra in each 1.6 sec cycle using an exclusion window of 6 sec. […]
XIC quantification was based on the average ion intensity of the three most abundant peptides for each protein. Only proteins quantified in at least four out of nine MS/MS experiments per fibril were included in the quantification. […]

[26] = test system: T2, Ab1 fibrils; assay: Fibril incubation with CSF, quantitative MS/MS of bound proteins; assay type: binding, human; details: 4:1 w/w CSF protein:fibril
[27] = 7.5 μg fibril material, two-site binding model

T5 sequence (P01275 53-81 limits assumed): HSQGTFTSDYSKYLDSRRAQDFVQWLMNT
Sequence of Ab2 fibrils (Aβ(1–40)) (P05067 672-711): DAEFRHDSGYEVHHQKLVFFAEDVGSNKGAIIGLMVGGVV
Sequence of Ab1 fibrils (Aβ(1–40)) (P05067 672-711): as above
T4 sequence (P01009 383-418 limits assumed): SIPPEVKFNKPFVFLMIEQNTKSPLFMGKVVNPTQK

For `Cc1ccc2c(c1)sc(-c1ccc(N(C)C)cc1)[n+]2C` [ThT, Thioflavin T], the “Ligand bound (binding capacity)” value [1] was 35 nmol/mg fibril, the “Ligand bound (binding capacity)” value [2] was 42 nmol/mg fibril and the “Ligand bound (binding capacity)” value [3] was 42 nmol/mg fibril. The “Ligand bound (binding capacity)” value [4] was 10 nmol/mg fibril, the “Ligand bound (binding capacity)” value [5] was 18 nmol/mg fibril and the “maximum ThT fluorescence intensity (Imax)” value [6] was 1,000 rfu. The Kd ([6]; read-out: dissociation constant (kd)) was 1450 nM, the Imax1 [7, 27] was 23,000 rfu and the Imax2 [7, 27] was −22,000 rfu. For the same molecule, the ThT fluorescence level ([7]; titration experiment) was 2–5,000 RFU, the ThT fluorescence level [8] was 2–5,000 RFU and the Imax1 [9, 27] was 23,000 rfu. For the same molecule, the Imax2 [9, 27] was −21,250 rfu, the ThT fluorescence level ([9]; titration experiment) was 2–5,000 RFU and the ThT signal [10] was “did not result in any ThT signal”. For the same molecule, the “maximum ThT fluorescence intensity (Imax)” value ([11]; 7.5 μg fibril material, single-site binding model) was 12,500 rfu, the Kd ([11]; 7.5 μg fibril material, single-site binding model, read-out: dissociation constant (kd)) was 630 nM and the ThT fluorescence level ([11]; titration experiment) was 12,500 RFU. For the same molecule, the ThT fluorescence [12] was “did not detect any fluorescence”.

For “Vitronectin: plasma/CSF protein bound to fibrils”, the “Relative composition of plasma proteins bound: C-36” value [13] was 4.9 ± 0.5 % of total protein, the “Relative composition of CSF proteins bound: αSN” value [14] was 3.6 ± 0.2 % of total protein and the “Identification status of CSF protein bound: FAS4-AD” value [15] was “—”. The “Relative composition of plasma proteins bound: Ab1” value [16] was 17.1 ± 1.9 % of total protein, the “contribution to the fibril interactomes” value [17] was 0.2–3.6% and the “Relative composition of CSF proteins bound: C-36” value [18] was 0.8 ± 0.1 % of total protein. The “Relative composition of plasma proteins bound: Glucagon” value [19] was 3.7 ± 0.1 % of total protein, the “Relative composition of plasma proteins bound: Ab2” value [20] was 12.1 ± 2.1 % of total protein and the “Relative composition of plasma proteins bound: FAS4-AD” value [21] was 1.6 ± 0.4 % of total protein. The “Relative composition of CSF proteins bound: Glucagon” value [22] was 0.2 ± 0.1 % of total protein, the “Relative composition of plasma proteins bound: αSN” value [23] was 9.3 ± 2.2 % of total protein and the “Relative composition of CSF proteins bound: Ab2” value [24] was 1.3 ± 0.3 % of total protein. The “contribution to the fibril interactomes” value [25] was 3.7–17.1% and the “Relative composition of CSF proteins bound: Ab1” value [26] was 1.1 ± 0.0 % of total protein.

Reference: PMC6405930, “Conservation of the Amyloid Interactome Across Diverse Fibrillar Structures” (Scientific Reports, 2019)
